Experimental data as given in publication PMC4076215, “Nickel(II) Complex of Polyhydroxybenzaldehyde N4-Thiosemicarbazone Exhibits Anti-Inflammatory Activity by Inhibiting NF-κB Transactivation” (PLoS ONE, 2014).
“Also recorded” adds a separate entry of the source.

Experiments:
[1] = test system: NF-κB p65 nuclear translocation; assay: NF-κB p65 immunofluorescence staining, LPS-stimulated RAW264.7; assay type: cell-based; conditions: RAW264.7, 25 µg/ml pre-treatment 4 h, LPS 1 h
Protocol: NF-κB Activation Kits (Thermo Scientific) were used as previously described. Cells were pretreated with compounds for 4 h before being stimulated with lipopolysaccharide (LPS) ortumour necrosis factor α (TNFα) for 1 h. Cells were then fixed and permeabilized before probing with NF-κB p65 antibody for 1 h. Staining solution (containing DyLight 488 Goat Anti-Rabbit and Hoechst dye) was then added and incubated for 1 h. The plate with stained cells was evaluated using a Cellomics ArrayScan HCS Reader (Cellomics, PA, USA). Data were captured, extracted and analyzed with ArrayScan II Data Acquisition and Data Viewer version 3.0 (Cellomics).
NF-κB acts as a central mediator of inflammatory responses and compounds that inhibit NF-κB activation are potential anti-inflammatory agents. To evaluate this, we performed immunofluorescence staining of NF-κB p65. […] In response to LPS stimulation, NF-κB p65 translocated from cytoplasm into the nucleus, implying NF-κB activation (Figure 3). […] Moreover, we observed that complex 6–8 required higher concentration (>50 µg/ml) to elicit similar inhibitory effect (data not shown).
Figure 3 Effect of N4-substituteted thiosemicarbazone complexes on LPS-induced NF-κB nuclear transloction in RAW264.7 macrophage cells. Staining of Hoechst (nucleus) and NF-κB in RAW264.7 cells. […]

[2] = test system: IκBα degradation and p65 nuclear translocation; assay: Immunoblot of cytoplasmic/nuclear extracts, LPS-stimulated RAW264.7; assay type: cell-based; conditions: RAW264.7, pretreated 4 h, LPS stimulation
Protocol: (§1) Cells were pretreated with or without of complex 5 (25 µg/ml or 50 µg/ml) for 4 h before treatment with LPS (10 ng/ml) or TNFα (10 ng/ml), for the indicated times. The cytoplasmic extracts were prepared by using the hypotonic lysis buffer (10 mM Tris, pH 7.5; 1.5 mM MgCl2; 10 mM KCl; 0.5 mM DTT; 0.5 mM PMSF; 1× Protease Inhibitor, 0.1% NP40) followed by incubation on ice for 20 min and centrifugation at 3k rpm at 4°C for 10 min. The supernatants were collected as cytoplasmic extracts. The nuclear pellets were resuspended in the whole cell lysis buffer (25 mM Tris, pH7.5; 420 mM NaCl; 1.5 mM MgCl2; 0.2 mM EDTA; 25% Glycerol; 0.5 mM DTT; 0.5 mM PMSF; 1× Protease Inhibitor). The nuclear extracts were then collected by centrifugation at 15 krpm at 4°C for 10 min. Immunoblotting was performed using antibodies against PARP (F-2, N-20), HSP90a (C-20), p65 (C-20), IκBα (C-21) and p-IκBα from Santa Cruz Biotech.
Next, complex 5 was chosen for subsequent mechanistic study due to its potent inhibitory effect on NF-κB p65 nuclear translocation. […] Cytoplasmic and nuclear extracts were separated and analyzed with immunoblotting using anti-IκBα and anti-p65 antibodies (Figure 4A and 4B). […]
Figure 4 Complex 5 blocks LPS-induced NF-κB nuclear translocation by inhibiting IκBα degradation. […] Western blot signal intensities were quantified using ImageJ software. […]

[3] = test system: IκBα degradation/phosphorylation and p65 translocation; assay: Immunoblot, TNFα-stimulated HeLa S3; assay type: cell-based, human; conditions: HeLa S3, pretreated 4 h, TNFα stimulation
Protocol: as §1
To examine whether complex 5 blocks the activation of NF-κB by another agonist, similar experiments were performed on HeLa S3 cells induced with TNFα. Similar to LPS-treated RAW264.7 cells, TNFα-induced translocation of NF-κB p65 in HeLa S3 cells (Figure 5A). […]
Figure 5 Complex 5 blocks TNFα-induced NF-κB nuclear translocation. […] Western blot signal intensities were quantified using ImageJ software. […]

[4] = Acute toxicity test in mice; assay type: in vivo, C57BL/6 mice
Description: Next, we examined the anti-inflammatory effects of complex 5 in a carrageenan-induced paw edema mouse model. We first tested the acute toxicity effect of complex 5 in C57BL/6 mice.

NC1=[S+][Ni-2]2([P+](c3ccccc3)(c3ccccc3)c3ccccc3)[O]c3c(O)cccc3C=[N+]2N1.[Cl-] [complex 5, {2-[(2-Carbamothiolylhydrazin-1-ylidene-[kappa]2N1,S)methyl]-6-hydroxyphenolato-[kappa]O1}(triphenylphosphine-[kappa]P)nickel(II) chloride]
Inhibition of LPS-mediated NF-κB p65 nuclear translocation [1]: efficiently inhibited; also recorded: marked inhibition
IκBα degradation and p65 nuclear translocation (immunoblot) [2]: inhibited both IκBα degradation and p65 nuclear translocation
IκBα degradation and p65 translocation (immunoblot) [3]: dramatically reduced
TNF-mediated phosphorylation of IκBα (immunoblot) [3]: completely abolished
Safety judged from renal and liver functional tests ([4]; 125 mg/kg or 250 mg/kg oral): safe for consumption
Safety judged from renal and liver functional tests ([4]; 500 mg/kg oral): may be cytotoxic to the host
Acute toxicity observation ([4]; 14 day observation period): no overt abnormalities
Well tolerated dose ([4]; acute toxicity test): up to 250 mg/kg
